Results taken from PubChem BioAssay (NCI).
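The compound was tested at five concentrations on cells cultured in 96-well plates, with a 48-hour exposure period. GI50 is the concentration that inhibits growth by half. At the TGI there is no net growth.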 Where a SMILES comes first, the peptide text is derived from it. [ ]: non-standard residue; d: D form. The star is where a group is joined. Benzoyl(4-OMe) = COc1ccc(C(=O)*)cc1; 2Thi = N[CH](Cc1cccs1)C(=O)O

Columns and labels:
Test in all cases: inhibition of tumour cell growth, NCI panel, 48 h
NCI-H23 lung = system: NCI-H23 lung
BT-549 breast = system: BT-549 breast
NCI-H226 lung = system: NCI-H226 lung
UACC-257 melanoma = system: UACC-257 melanoma
A498 renal = system: A498 renal
HOP-62 NSCLC = system: HOP-62 NSCLC
K-562 leukemia = system: K-562 leukemia
SR leukemia = system: SR leukemia
MDA-MB-231 breast = system: MDA-MB-231 breast
DU-145 prostate = system: DU-145 prostate
SK-MEL-2 melanoma = system: SK-MEL-2 melanoma
HCT-116 colon = system: HCT-116 colon
SK-MEL-28 melanoma = system: SK-MEL-28 melanoma
NCI-H522 lung = system: NCI-H522 lung
786-0 renal = system: 786-0 renal
UO-31 renal = system: UO-31 renal
LOX IMVI melanoma = system: LOX IMVI melanoma
HOP-92 NSCLC = system: HOP-92 NSCLC
SK-OV-3 ovarian = system: SK-OV-3 ovarian
MDA-MB-435 = system: MDA-MB-435
RPMI-8226 leukemia = system: RPMI-8226 leukemia
NCI/ADR-RES ovarian = system: NCI/ADR-RES ovarian
HS 578T breast = system: HS 578T breast
SN12C renal = system: SN12C renal
M14 melanoma = system: M14 melanoma
HCT-15 colon = system: HCT-15 colon
SW-620 colon = system: SW-620 colon
MCF7 breast = system: MCF7 breast
SNB-75 CNS = system: SNB-75 CNS
UACC-62 melanoma = system: UACC-62 melanoma
NCI-H460 lung = system: NCI-H460 lung
ACHN renal = system: ACHN renal
COLO 205 colon = system: COLO 205 colon
TK-10 renal = system: TK-10 renal
HT29 colon = system: HT29 colon
SF-295 CNS = system: SF-295 CNS
MOLT-4 leukemia = system: MOLT-4 leukemia
OVCAR-5 ovarian = system: OVCAR-5 ovarian
SK-MEL-5 melanoma = system: SK-MEL-5 melanoma
PC-3 prostate = system: PC-3 prostate
MALME-3M melanoma = system: MALME-3M melanoma
T-47D breast = system: T-47D breast
HCC-2998 colon = system: HCC-2998 colon
SF-268 CNS = system: SF-268 CNS
OVCAR-4 ovarian = system: OVCAR-4 ovarian
CCRF-CEM leukemia = system: CCRF-CEM leukemia
SNB-19 CNS = system: SNB-19 CNS
RXF 393 renal = system: RXF 393 renal
U251 CNS = system: U251 CNS
CAKI-1 renal = system: CAKI-1 renal
A549 NSCLC = system: A549 NSCLC
EKVX NSCLC = system: EKVX NSCLC
SF-539 CNS = system: SF-539 CNS
OVCAR-8 ovarian = system: OVCAR-8 ovarian

CCC(C)C(NC(=O)C(Cc1cccs1)NC(=O)C(CC(C)C)NC(=O)C(CC(C)C)NC(=O)C(CCCCN)NC(=O)C(CCCN=C(N)N)NC(=O)c1ccc(OC)cc1)C(=O)NC(CC(C)C)C(N)=O (stereo not given) ({Benzoyl(4-OMe)}-RKLL[2Thi]IL-NH2; configuration not given here)
TGI (NCI-H23 lung): > 100 µM
TGI (BT-549 breast): > 100 µM
TGI (NCI-H226 lung): > 100 µM
TGI (UACC-257 melanoma): > 100 µM

N#Cc1c(-c2ccccc2)cc(-c2ccccc2)n(CC(=O)NO)c1=O
GI50 (A498 renal): 2.17 µM
TGI (A498 renal): 7.99 µM
GI50 (HOP-62 NSCLC): 6.99 µM
TGI (HOP-62 NSCLC): 58.3 µM
GI50 (K-562 leukemia): 1.8 µM
TGI (K-562 leukemia): 4.67 µM
GI50 (SR leukemia): 0.593 µM
TGI (SR leukemia): 4.48 µM
GI50 (MDA-MB-231 breast): 4.75 µM
TGI (MDA-MB-231 breast): 68 µM
GI50 (DU-145 prostate): 6.37 µM
TGI (DU-145 prostate): > 100 µM
GI50 (SK-MEL-2 melanoma): 2.85 µM
TGI (SK-MEL-2 melanoma): 9.13 µM
GI50 (HCT-116 colon): 2.57 µM
TGI (HCT-116 colon): > 100 µM
GI50 (SK-MEL-28 melanoma): 6.7 µM
TGI (SK-MEL-28 melanoma): 77.4 µM
GI50 (NCI-H522 lung): 0.427 µM
TGI (NCI-H522 lung): 1.82 µM
GI50 (786-0 renal): 5.59 µM
TGI (786-0 renal): 28 µM
GI50 (UO-31 renal): 1.84 µM
TGI (UO-31 renal): 9.75 µM
GI50 (LOX IMVI melanoma): 0.176 µM
TGI (LOX IMVI melanoma): 0.333 µM
GI50 (HOP-92 NSCLC): 2.15 µM
TGI (HOP-92 NSCLC): 8.17 µM
GI50 (NCI-H23 lung): 3.58 µM
TGI (NCI-H23 lung): 81.4 µM
GI50 (SK-OV-3 ovarian): 6.24 µM
TGI (SK-OV-3 ovarian): 53.5 µM
GI50 (MDA-MB-435): 3.03 µM
TGI (MDA-MB-435): > 100 µM
GI50 (RPMI-8226 leukemia): 1.35 µM
TGI (RPMI-8226 leukemia): 4.77 µM
GI50 (NCI/ADR-RES ovarian): 3.41 µM
TGI (NCI/ADR-RES ovarian): > 100 µM
GI50 (HS 578T breast): 2 µM
TGI (HS 578T breast): 7.15 µM
GI50 (SN12C renal): 4.27 µM
TGI (SN12C renal): > 100 µM
GI50 (M14 melanoma): 4.16 µM
TGI (M14 melanoma): 19.1 µM
GI50 (HCT-15 colon): 3.55 µM
TGI (HCT-15 colon): 28.8 µM
GI50 (SW-620 colon): 8.87 µM
TGI (SW-620 colon): > 100 µM
GI50 (MCF7 breast): 1.45 µM
TGI (MCF7 breast): 3.82 µM
GI50 (SNB-75 CNS): 1.61 µM
TGI (SNB-75 CNS): 6.36 µM
GI50 (NCI-H226 lung): 13.7 µM
TGI (NCI-H226 lung): 57.5 µM
GI50 (UACC-62 melanoma): 2.25 µM
TGI (UACC-62 melanoma): 6.01 µM
GI50 (NCI-H460 lung): 3.02 µM
TGI (NCI-H460 lung): > 100 µM
GI50 (ACHN renal): 1.09 µM
TGI (ACHN renal): > 100 µM
GI50 (UACC-257 melanoma): 10.8 µM
TGI (UACC-257 melanoma): 37.4 µM
GI50 (COLO 205 colon): 5.62 µM
TGI (COLO 205 colon): 72.3 µM
GI50 (TK-10 renal): 5.92 µM
TGI (TK-10 renal): > 100 µM
GI50 (HT29 colon): 3.07 µM
TGI (HT29 colon): 12.2 µM
GI50 (SF-295 CNS): 7.47 µM
TGI (SF-295 CNS): 33.8 µM
GI50 (MOLT-4 leukemia): 1.7 µM
TGI (MOLT-4 leukemia): 4.92 µM
GI50 (OVCAR-5 ovarian): 11.1 µM
TGI (OVCAR-5 ovarian): > 100 µM
GI50 (SK-MEL-5 melanoma): 1.93 µM
TGI (SK-MEL-5 melanoma): 4.71 µM
GI50 (PC-3 prostate): 2.25 µM
TGI (PC-3 prostate): 14 µM
GI50 (MALME-3M melanoma): 3 µM
TGI (MALME-3M melanoma): 27.3 µM
GI50 (T-47D breast): 1.41 µM
TGI (T-47D breast): 6.88 µM
GI50 (HCC-2998 colon): 3.74 µM
TGI (HCC-2998 colon): 20.9 µM
GI50 (SF-268 CNS): 3.66 µM
TGI (SF-268 CNS): 94.3 µM
GI50 (OVCAR-4 ovarian): 3.53 µM
TGI (OVCAR-4 ovarian): > 100 µM
GI50 (CCRF-CEM leukemia): 0.491 µM
TGI (CCRF-CEM leukemia): 3.07 µM
GI50 (SNB-19 CNS): 7.09 µM
TGI (SNB-19 CNS): 73.3 µM
GI50 (RXF 393 renal): 1.61 µM
TGI (RXF 393 renal): 5.92 µM
GI50 (U251 CNS): 4.91 µM
TGI (U251 CNS): 86.3 µM
GI50 (CAKI-1 renal): 3.4 µM
TGI (CAKI-1 renal): > 100 µM
GI50 (A549 NSCLC): 4.57 µM
TGI (A549 NSCLC): > 100 µM
GI50 (EKVX NSCLC): 3.45 µM
TGI (EKVX NSCLC): 97 µM
GI50 (SF-539 CNS): 3.83 µM
TGI (SF-539 CNS): 25.7 µM
GI50 (OVCAR-8 ovarian): 8.02 µM
TGI (OVCAR-8 ovarian): > 100 µM
